The source of these data is patent US11351178B2, “Selective HDAC6 inhibitors” (ITALFARMACO S.P.A., priority 2017, dated 2022).

Like-named read-outs stand apart in the source and are kept apart here.

In one series the test system is human PBMCs. Description: Mixed Lymphocytes Reaction (MLR) with human PBMCs (IFN-γ, TNF-α, IL-6). Particulars: PBMC, 144 h, two-way MLR, 6 days, 0.05 μM, negative = induction. The class given is cell-based. As to the method: In order to study HDAC6 inhibitors ability to inhibit the activation of allogenic T CD4+ cells, a Mixed Lymphocytes Reaction (MLR or mixed lymphocyte culture, CLM) assay was performed. This is a reaction involving blast transformation of in vitro cultured lymphocytes in the presence of allogeneic lymphocytes. There is the so-called “two-way” reaction wherein the two lymphocyte populations stimulate each other to proliferate, and the so-called “one way” reaction, wherein the proliferation of one of the two populations is inhibited by mitomycin C or irradiation, these cells provide proliferation stimulus (stimulator) to the so-called “responder” cells.
Human peripheral blood mononuclear cells (PBMCs) used in MLR were obtained by Ficoll gradient separation from Buffy Coat of healthy donors.
We used a two-way MLR. The cells from the two donors were plated at 1:1 ratio (allogenic stimulation) to the final concentration of 2×10^5 per well in U-bottom 96 well plates in RPMI 1640 medium with 10% FBS and antibiotics. As a control we individually plated the cells from each donor (singenic stimulus). The experiment for each inhibitor was set in deduplicate for allogeneic stimuli and in quintuplicate for singenic stimuli. The cells were cultured for 6 days in an incubator at 37° C.
After 6 days the effect of the test compounds was evaluated by measuring the production of pro-inflammatory cytokines recognized to be characteristics of this assay.
For this purpose, the culture supernatant was harvested and used for IFN-γ, TNF-α and IL-6 inflammatory cytokine assay.
The JAK inhibitor ruxolitinib was used as the active reference compound in the test.
Values in the table indicate the inhibition percentages. Negative values indicate an induction.

The test system of series [1] is α-tubulin acetylation in 697 cell line. As to the kind of experiment: In vitro α-tubulin acetylation in 697 cell line. It counts as cell-based. As to the method:
(§1) The in vitro α-tubulin and H3 histone acetylation determination was evaluated on B 697 […] cell line.
(§2) The test molecules were diluted from 20 mM stock solution in DMSO with RPMI 10% FCS+0.01% DMSO medium at 20× concentration compared to the final concentration, added to the cells (15×10^6 cells in a total volume of 30 ml in RPMI medium 10% FCS+0.01% DMSO) to obtain the final concentrations of 1000, 333, 111 and 37 nM and incubated at 37° C., 5% CO2 for 16 hours.
At the end of the incubation period, 5×10^6 cells were taken from each sample, centrifuged for 5 minutes at 1100 rpm and washed in 0.9% NaCl at 4° C. The resulting pellet was lysed by treating at 4° C. for 30 minutes with 150 μl of Complete Lysis-M (Roche, cat-04719956051) containing protease inhibitors and phosphatase (Complete Easy Pack proteinase inhibitor cocktail tablets cat: 04693116001, Phostop easypack phosphatase inhibitor cocktails, cat: 01906837001—Roche), then centrifuged 10 minutes at 14,000 rpm (20817×g). 0.150 μg of supernatant (total protein extract) were diluted in 100 μl of 1×PBS and immobilized in Maxisorp F96 NUN-IMMUNO Plate (Nunc cat #5442404) at room temperature overnight. Plates were washed twice with Wash Buffer (PBS1X+0.005% tween 20) and saturated for 1 hour at room temperature with 300 μL of 1×PBS containing 10 FCS. After washing with buffer (1×PBS containing 0.005% tween), the plates were incubated for two hours at room temperature in the presence of anti-acetylated-α-tubulin antibody (Monoclonal Anti-acetylated-tubulin clone 6-11B-1, mouse ascites fluid, cat #T6793 Sigma, 100 μl diluted 1:1000 in 1×PBS containing 10% FCS) or with total anti-α-tubulin antibody (Monoclonal Anti alpha-tubulin produced in mouse, cat #T6074 Sigma). After washing, 100 μl per well of TMB substrate kit was added for 10 minutes at room temperature in the dark. The reaction was stopped by adding 50 μl of 2N H2SO4. The plates were read at Multiskan Spectrum spectrophotometer at a wavelength of 450 nm.
The degree of acetylation was calculated by dividing the absorbance obtained for acetylated α-tubulin by the absorbance of total α-tubulin.
(§3) Test results of tubulin and H3 histone acetylation, expressed as fold increase of ratio of acetylated α-tubulin/total α-tubulin and H3Ac/H3Tot, respectively, of each sample relative to the control sample (untreated) are summarized in Tables 6 and 6′.

The format of series [2] is in vivo. Particulars: mouse, Day 12, 100 mg/Kg ip. As to the method:
Following chronic intraperitoneal administration in C57BL/6 mice, compounds MTD was estimated by clinical (body weight and behaviour) and blood (white blood cells and platelets) parameters evaluation. The compounds were administered after dissolution in a H2O/PEG400 mixture in ratio 1:1 w/w containing 5% DMSO (for compound 17, 20% DMSO was used).
All animals were weighed the day before the treatment (day 0) and the average body weight was determined.
Animals (8 animals per group) were treated once a day starting from Day 1 during 5 consecutive days per week with: • a) the compounds at doses of 10, 30, 50 mg/kg ip, • b) Givinostat at 100 mg/kg (internal control) and • c) the vehicle solutions used for solubilizing the substances.
The volume of the solutions administered was 10 mL/Kg. The treatment was repeated for 2 weeks, for a total of 10 treatments/group.
On a daily basis any clinical sign (skin appearance, mobility and animal reactivity, respiration, etc.) indicating a possible toxicity of the compounds has been reported. The animal weight was evaluated on days 2, 4, 9 and 11.
On Day 1, 3, 5, 8, 10 and 12, blood sample (about 50 μL) were taken from the tail of the animal to evaluate the effect of the substances on blood parameters. Withdrawals were performed on 4 animals per group on alternate days.
Samples were harvested in tubes containing EDTA, appropriately diluted in physiological solution and analysed with a cell counter.
At the end of the study (day 12) the animals were sacrificed 60 minutes after the last treatment. Gross necropsy evaluation was performed to detect any internal organ abnormalities. Table 8 summarizes the data obtained in MTD determination experiments for some of the compounds according to the invention. Givinostat is a HDAC pan inhibitor and was used as a reference. The tested molecules are well tolerated.

In series [3] the test system is H3 histone acetylation in 697 cell line. As to the kind of experiment: In vitro H3 histone acetylation in 697 cell line. The class given is cell-based. Here is the method: as §1, §2
The remaining cells (10×10^6) were treated by acid extraction of histones (Kazuhiro et al., PNAS (2002), 99 (13) 8921-8926). Cells were centrifuged 5 min at 1100 rpm at 4° C. and washed once in 0.9% NaCl. The resulting pellet was lysed with […] (10 mM Tris.HCl, pH 6.5/50 mM sodium bisulphite, 1% Triton X-100/10 mM MgCl2/8.6% saccharose containing the protease inhibitor mixture (Roche)) for 20 min at 4° C. The resulting nucleus pellet was repeatedly washed in buffer until supernatant clarification (centrifuged at 7,500×g, 5 minutes after each wash) and finally washed in nucleus buffer (10 mM Tris.HCl/13 mm EDTA, pH 7, 4) and resuspended in 250 μl of 0.2 M HCl/H2SO4. Histone proteins were extracted in an acidic environment by incubating overnight at 4° C. under gentle shaking. After centrifugation at 14,000 rpm at 4° C. for 10 minutes, 1250 μl of cold acetone was added to the supernatant and incubated overnight at −20° C., resulting in the precipitation of histone proteins. The pellet obtained after centrifugation for 10 minutes at 14000 rpm and 4° C. was washed with cold acetone, evaporated to dryness and resuspended in 50 μl distilled water. The protein content determination of both total and histone extracts was carried out by a colorimetric assay using a BCA Protein Assay Kit (Pierce cat: 23227).
H3 histone acetylation and total H3 amount were quantified by commercial ELISA assays PathScan acetylated histone H3 Sandwich Elisa kit, cat #7232C and PathScan total histone H3 Sandwich Elisa Kit, cat #7253C Cell Signaling) according to supplier reported method and by detecting absorbance at 450 nm wavelength using Multiskan Spectrum. ELISA tests were performed by analysing 0.250 μg and 0.500 μg of histone extract of each sample. The degree of acetylation was calculated by dividing H3 histone absorbance by histone total absorbance.
as §3

On to `N#CC[C@H](C1CCCC1)n1cc(-c2ncnc3[nH]ccc23)cn1` [ruxolitinib, reference compound], for which the inhibition (as a rule, the relative decrease from the control value, in per cent) at 0.05 µM with human PBMCs (read-out: MLR IFN-γ inhibition percentage) is 87.9%; in the series on human PBMCs (read-out: MLR IL-6 inhibition percentage), 73.3%; in the series with human PBMCs (read-out: MLR TNF-α inhibition percentage), 61.2%.
Consider `CCN(CC)Cc1ccc2cc(COC(=O)Nc3ccc(C(=O)NO)cc3)ccc2c1` [Givinostat, reference compound], for which the “tubulin acetylation (in words)” value in series [1] is “good acetylation of both tubulin and H3 histone”. Also, the fold induction at 0.037 µM in series [1] (Conc 37 nM, 16 hours, read-out: Tubulin acetylation (ratio of acetylated tubulin and total tubulin towards control)) is 1. In addition, the fold induction at 0.111 µM turned out to be 4 in series [1] (Conc 111 nM, 16 hours, read-out: Tubulin acetylation (ratio of acetylated tubulin and total tubulin towards control)); 8 in series [3] (16 h, conc 111 nM, read-out: Acetylation of H3 histone (fold increase of acetylated H3/total H3 towards control)). The fold induction at 0.333 µM was determined as 12 in series [1] (Conc 333 nM, 16 hours, read-out: Tubulin acetylation (ratio of acetylated tubulin and total tubulin towards control)); 17 in series [3] (16 h, conc 333 nM, read-out: Acetylation of H3 histone (fold increase of acetylated H3/total H3 towards control)). In addition, the fold induction at 1 µM in series [1] (Conc 1000 nM, 16 hours, read-out: Tubulin acetylation (ratio of acetylated tubulin and total tubulin towards control)) was determined as 18; in series [3] (16 h, conc 1000 nM, read-out: Acetylation of H3 histone (fold increase of acetylated H3/total H3 towards control)), 23. The “Body weight % vs control” value in series [2] was determined as 0.9%. In addition, the “Platelet % vs control” value in series [2] was −7%. The “White blood cells % vs control” value in series [2] is on record as −72%. In series [3], the “H3 histone acetylation (in words)” value was “good acetylation of both tubulin and H3 histone”.
